# Data taken from publication PMC10108266, “Pharmacokinetic characteristics of golidocitinib, a highly selective JAK1 inhibitor, in healthy adult participants” (Frontiers in Immunology, 2023).
# Like-named read-outs stand apart in the source and are kept apart here.
# Legend:
# [1] = set-up: method as in JACKPOT5, NCT04225208; settings: concluded from metabolic profile in human, radiolabeled mass balance study in 8 healthy participants ref JACKPOT5, NCT04225208; cited from earlier work
# [2] = One-month toxicology study in rat; settings: in vivo
# [3] = Overall safety and tolerability, JACKPOT2 and JACKPOT3; format: in vivo, human
# Text: (§1) Safety assessments included monitoring of adverse events/serious adverse events, clinical safety laboratory tests (clinical chemistry, hematology, coagulation, and urinalysis tests), 12-lead ECG, vital signs (blood pressure, pulse rate, and respiratory rate), and pulmonary function. All adverse events were coded using the Medical Dictionary for Regulatory Activities (MedDRA), version 22.0. The CTCAE 5.0 was used to define the intensity of AEs.
# The safety monitoring for both JACKPOT2 and JACKPOT3 was similar, included monitoring of adverse events/serious adverse events, clinical safety laboratory tests (clinical chemistry, hematology, coagulation, and urinalysis tests), 12-lead ECG, vital signs (blood pressure, pulse rate, and respiratory rate), and pulmonary function.
# [4] = Clearance pathways (available data); format: in vivo, human
# [5] = Safety (TEAEs), JACKPOT2 food effect cohort; format: in vivo, human
# Text: as §1
# [6] = JACKPOT3 SAD urinary PK (100 mg); format: in vivo, human; settings: single dose 100 mg
# Description: After single oral administration, serial blood samples were obtained on Day 1 at pre-dose, and at 0.5, 1, 1.5, 2, 3, 4, 6, 8, 12, 24 (Day 2), 48 (Day 3), 72 (Day 4), 120 (Day 6), 168 (Day 8) and 216 (Day 10) hours post-dose for plasma PK analysis. Urine samples were collected during the collection intervals of 0-4, 4-10, 10-24, 24-48, 48-72, 72-96, 96-120, 120-144, and 144-168 hours following a single oral dose of 100 mg for urine PK analysis. Validated LC/MS methods were used for the determination of golidocitinib in human plasma and urine by Frontage Laboratories Inc. (Shanghai). This method was cross validated by Frontage Laboratories Inc. (New Jersey, USA) and met the acceptance criteria.
# The mean (SD) amount of golidocitinib excreted in the urine over the collection period and renal clearance are presented in Table 2B . The average amount of golidocitinib excreted in the urine increased in an approximately dose proportional manner from 25 mg to 100 mg. […] The renal excretion fraction (Fe0-t) is helpful to compare the renal clearance (CLr) with total clearance (CLtotal) and determine the contribution of renal clearance in the drug elimination. It was calculated by the equation Fe0-t = CLr/CLtotal. The CL/F values were obtained from the two Phase I studies after the oral administration. Since the pharmacokinetics of golidocitinib after intravenous injection was not studied, the bioavailability value (F) was calculated by physiologically based pharmacokinetic (PBPK) model that incorporated compound specific information and independent prior knowledge on the physiology and biology at the organism.
# [7] = JACKPOT2 food effect cohort (50 mg, fasted vs high-fat meal); format: in vivo, human; settings: for AUC0-inf, Geometric Mean Ratio (90% CI) (Test vs Reference) / AUC0-t, Geometric Mean Ratio (90% CI) (Test vs Reference) / Cmax, Geometric Mean Ratio (90% CI) (Test vs Reference) / AUC(0-inf) / AUC(0-t) / Cmax: 50 mg; for AUC0-inf, Geometric Mean Ratio (90% CI) (Test vs Reference) / AUC0-t, Geometric Mean Ratio (90% CI) (Test vs Reference) / Cmax, Geometric Mean Ratio (90% CI) (Test vs Reference): fed versus fasted, percent ratio of geometric least square means; for AUC(0-inf): read-out: AUC0-inf, Geometric mean (%CV); for AUC(0-t): read-out: AUC0-t, Geometric mean (%CV); for Cmax: read-out: Cmax, Geometric mean (%CV)
# Description: A total of 42 and 24 healthy participants were enrolled in part A and part B, respectively. In part A, a total of 30 participants were randomized into 5 SAD cohorts (n = 6 per cohort) and received a single dose of golidocitinib at different dose levels or a matching placebo in a 4:2 ratio. In the food effect cohort, a total of 12 participants were enrolled and received the study drug under fasted or fed conditions, with a sequential design. The 50 mg dose was selected based on available safety data after the completion of the SAD cohorts, and also on the outcomes from PK/PD modeling for potential efficacious dose for autoimmune disease. On Day 1, participants took a single dose of golidocitinib under fast condition. After a 14-day wash-out period, on Day 15, participants received another single dose of golidocitinib immediately after a standard high-fat meal. Food recipes and contents are consistent with that described in FDA Guidance for Food-Effect Bioavailability studies ([10]). For the fed condition, keeping fasted for at least 10 hours, participants started ingestion of high-fat meal 30 minutes prior to administration of golidocitinib. They had to finish the meal within 30 minutes or less, and no food was allowed for at least 4 hours post-dose. In part B, a total of 24 participants were randomized into 3 MAD cohorts, with 8 in each cohort (active:placebo = 6:2). In these cohorts, participants received golidocitinib at different dose levels or placebo once daily dosing for 14 days. Dose escalation was based on available PK and safety data in the previous cohorts.
# For food effect assessment, log-transformed PK parameters (AUC0-t, AUC0-inf, and Cmax) of golidocitinib were analyzed using a mixed-effect model including terms for study treatment (fasted and fed) as fixed effects, and participants nested within treatment as a random effect. The CIs on the ratios of untransformed PK parameters were derived through a reverse transformation of the 90% CIs for the differences of the means in the log scale from the mixed-effect model. Least-squares geometric means, a ratio of the geometric means and 90% CIs on the ratio of fed to fasted were presented.
# [8] = human, plasma, oral, 50 mg single dose, Fasted (Reference), N = 12
# [9] = human, plasma, oral, 50 mg single dose, High-fat meal (Test), N = 11
smiles,measurement,setting,value
"COc1nn(C)cc1Nc1nccc(-c2c[nH]c3c(NC(=O)[C@@H](C)N4CCN(C)CC4)cccc23)n1 [golidocitinib, (2R)-N-[3-[2-[(3-Methoxy-1-methyl-pyrazol-4-yl)amino]pyrimidin-4-yl]-1H-indol-7-yl]-2-(4-methylpiperazin-1-yl)propenamide]",oral bioavailability,[1],> 80%
same,Human equivalent dose of the NOAEL at 1 month,"[2]; body surface area (BSA) conversion, read-out: Human Equivalent Dose (HED) of the NOAEL",0.972 mg/kg
same,NOAEL at 1 month,"[2]; most sensitive species (rat), one-month toxicology study, read-out: No Observed Adverse Effect Level (NOAEL)",6 mg/kg
same,tolerability,"[3]; healthy participants, 5 mg to 150 mg single dose, 25 mg to 100 mg multiple dose",well-tolerated
same,serious adverse events,[3]; in vivo,No serious adverse events were reported
same,CTCAE grade 3 or higher drug-related TEAE,[3]; investigators' assessment,no CTCAE grade 3 or higher drug-related TEAE was reported
same,"hepatic clearance, share of clearance",[4],70-80%
same,"renal excretion, share of clearance",[4],20-30%
same,Alanine Aminotransferase Increased,"[5]; 50 mg (Fasted), n = 12",1 (8.3%) n (%)
same,Anemia,"[5]; 50 mg (Fasted), n = 12",0 n (%)
same,Aspartate Aminotransferase Increased,"[5]; 50 mg (Fasted), n = 12",0 n (%)
same,Blood Lactate Dehydrogenase Increased,"[5]; 50 mg (Fasted), n = 12",0 n (%)
same,Blood and Lymphatic System Disorders,"[5]; 50 mg (Fasted), n = 12",0 n (%)
same,Cardiac Disorders,"[5]; 50 mg (Fasted), n = 12",1 (8.3%) n (%)
same,Cough,"[5]; 50 mg (Fasted), n = 12",0 n (%)
same,Extrasystoles,"[5]; 50 mg (Fasted), n = 12",1 (8.3%) n (%)
same,Headache,"[5]; 50 mg (Fasted), n = 12",0 n (%)
same,Investigations,"[5]; 50 mg (Fasted), n = 12",2 (16.7%) n (%)
same,Lipase Increased,"[5]; 50 mg (Fasted), n = 12",1 (8.3%) n (%)
same,Nervous System Disorders,"[5]; 50 mg (Fasted), n = 12",0 n (%)
same,"Respiratory, Thoracic and Mediastinal Disorders","[5]; 50 mg (Fasted), n = 12",0 n (%)
same,Rhinorrhea,"[5]; 50 mg (Fasted), n = 12",0 n (%)
same,Subjects with at least one TEAE,"[5]; 50 mg (Fasted), n = 12",3 (25.0%) n (%)
same,Alanine Aminotransferase Increased,"[5]; 50 mg (Fed), n = 11",3 (27.3%) n (%)
same,Anemia,"[5]; 50 mg (Fed), n = 11",1 (9.1%) n (%)
same,Aspartate Aminotransferase Increased,"[5]; 50 mg (Fed), n = 11",2 (18.2%) n (%)
same,Blood Lactate Dehydrogenase Increased,"[5]; 50 mg (Fed), n = 11",1 (9.1%) n (%)
same,Blood and Lymphatic System Disorders,"[5]; 50 mg (Fed), n = 11",1 (9.1%) n (%)
same,Cardiac Disorders,"[5]; 50 mg (Fed), n = 11",0 n (%)
same,Cough,"[5]; 50 mg (Fed), n = 11",1 (9.1%) n (%)
same,Extrasystoles,"[5]; 50 mg (Fed), n = 11",0 n (%)
same,Headache,"[5]; 50 mg (Fed), n = 11",1 (9.1%) n (%)
same,Investigations,"[5]; 50 mg (Fed), n = 11",4 (36.4%) n (%)
same,Lipase Increased,"[5]; 50 mg (Fed), n = 11",1 (9.1%) n (%)
same,Nervous System Disorders,"[5]; 50 mg (Fed), n = 11",1 (9.1%) n (%)
same,"Respiratory, Thoracic and Mediastinal Disorders","[5]; 50 mg (Fed), n = 11",2 (18.2%) n (%)
same,Rhinorrhea,"[5]; 50 mg (Fed), n = 11",2 (18.2%) n (%)
same,Subjects with at least one TEAE,"[5]; 50 mg (Fed), n = 11",7 (63.6%) n (%)
same,discontinuation due to AE,"[5]; 50 mg, fasted state, AE mild, resolved within 2 hours without treatment",one subject was discontinued due to an AE of trigeminy
same,CL renal,"[6]; human, urine and plasma, oral, Ae0-t/AUC0-t, mean (SD)",67.8 mL/min
same,CLtotal,[6]; CL/F * F (0.7 from PBPK model),15.0 L/h
same,Fe0-t,[6]; CLr/CLtotal,27.2%
same,Ae0-t,"[6]; urine 0-168 hour, mean (SD)",19.5 (6.22) mg
same,"tmax, Median (range)","[7]; 50 mg single dose, High-fat meal (Test), N = 11","6.00 (4.00, 14.0) hour"
same,"AUC0-inf, Geometric Mean Ratio (90% CI) (Test vs Reference)",[7],"116.5 (111.2, 122.0) %"
same,"AUC0-t, Geometric Mean Ratio (90% CI) (Test vs Reference)",[7],"115.0 (109.3, 121.0) %"
same,"Cmax, Geometric Mean Ratio (90% CI) (Test vs Reference)",[7],"108.9 (97.81, 121.2) %"
same,"AUC0-inf, Geometric Mean Ratio (90% CI) (Test vs Reference)",[7]; listed as Golidocitinib,116.5 (111.2-122.0) %
same,"AUC0-t, Geometric Mean Ratio (90% CI) (Test vs Reference)",[7]; listed as Golidocitinib,115.0 (109.3-121.0) %
same,"Cmax, Geometric Mean Ratio (90% CI) (Test vs Reference)",[7]; listed as Golidocitinib,108.9 (97.81-121.2) %
same,AUC(0-inf),[7]; [8],2960 ng·h/mL
same,AUC(0-t),[7]; [8],2770 ng·h/mL
same,Cmax,[7]; [8],68.8 ng/mL
same,AUC(0-inf),[7]; [9],3400 ng·h/mL
same,AUC(0-t),[7]; [9],3230 ng·h/mL
same,Cmax,[7]; [9],73.7 ng/mL
same,Tmax,"[7]; human, plasma, oral, 50 mg single dose, Fasted (Reference), N = 12, read-out: tmax, Median (range)",6 h
